# Where a SMILES comes first, the peptide text is derived from it. Bridges are numbered along the chain shown (N, C = ends). [ ]: non-standard residue; d: D form. ξ: configuration not given here. Trp(1-CH2COOH) = N[C@@H](Cc1cn(CC(=O)O)c2ccccc12)C(=O)O; Phe(3,4,5-F3) = N[C@@H](Cc1cc(F)c(F)c(F)c1)C(=O)O; d(cisHyp) = O=C(O)[C@H]1C[C@@H](O)CN1; NMeY = CN[C@@H](Cc1ccc(O)cc1)C(=O)O; Hyp = O=C(O)[C@@H]1C[C@@H](O)CN1; NMeF = CN[C@@H](Cc1ccccc1)C(=O)O; Pip(4-aza) = O=C(O)[C@@H]1CNCCN1; NMehSer = CN[C@@H](CCO)C(=O)O; NMeNle = CCCC[C@H](NC)C(=O)O; dPip = O=C(O)[C@H]1CCCCN1; hSer = N[C@@H](CCO)C(=O)O; NMeA = CN[C@@H](C)C(=O)O; Orn = NCCC[C@H](N)C(=O)O; ξC = NC(CS)C(=O)O
# Target: T1, Human PD-L1/PD-1 (Homo sapiens, UniProt Q9NZQ7)
# T1 construct: TVMV protease cleavage site (C); made in house; host or cells: HEK293T cells
# Experiment: HTRF Human PD-L1/PD-1 binding assay (PD-1-Ig/PD-L1-His)
# Conditions: PD-L1-His 10 nM, PD-1-Ig 20 nM; class symbol; read-out: HTRF Human PD-L1/PD-1 Binding Assay IC50 Range
# In short: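 Step 1: compound with PD-L1-His (10 nM final), 15 min. Step 2: PD-1-Ig (20 nM final), 15 min. Step 3: Eu-cryptate anti-Ig (1 nM) plus APC anti-His (20 nM), 30 min equilibration. Signal taken as 665 nm/620 nm ratio.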
# T1 sequence (Q9NZQ7 with tags, fused parts or gaps): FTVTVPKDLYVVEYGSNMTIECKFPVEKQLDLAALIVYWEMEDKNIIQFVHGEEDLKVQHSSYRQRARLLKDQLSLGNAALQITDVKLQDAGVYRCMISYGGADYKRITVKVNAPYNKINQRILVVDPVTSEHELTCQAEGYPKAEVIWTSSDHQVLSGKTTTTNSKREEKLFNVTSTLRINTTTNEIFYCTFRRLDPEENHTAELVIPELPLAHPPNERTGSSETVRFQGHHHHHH
row,IC50,SMILES
1,0.001 to 0.0099 µM,"CCCC[C@H]1C(=O)N2CCC[C@@H]2C(=O)N[C@@H](CC(=O)O)C(=O)N[C@@H](C(C)C)C(=O)N(C)[C@@H](Cc2ccccc2)C(=O)N[C@@H](CCC(=O)O)C(=O)N2C[C@H](O)C[C@@H]2C(=O)N[C@@H](Cc2c[nH]c3ccccc23)C(=O)N[C@@H](Cc2ccc(O)cc2)C(=O)N[C@@H](CCCN)C(=O)N[C@H](C(=O)NCC(N)=O)CSCC(=O)N[C@@H](Cc2cc(F)c(F)c(F)c2)C(=O)N(C)[C@@H](Cc2ccc(O)cc2)C(=O)N1C [Example 10632] ({CH2CO}-[Phe(3,4,5-F3)][NMeY][NMeNle][dP]DV[NMeF]E[d(cisHyp)]WY[Orn]CG-NH2; thioether N-13)"
2,0.001 to 0.0099 µM,"CCCC[C@H]1C(=O)N2CCC[C@@H]2C(=O)N2CCNC[C@H]2C(=O)N[C@@H](C(C)C)C(=O)N(C)[C@@H](Cc2ccccc2)C(=O)N[C@@H](Cc2ccc(O)cc2)C(=O)N2CCCC[C@@H]2C(=O)N[C@@H](Cc2c[nH]c3ccccc23)C(=O)N[C@@H](Cc2ccc(O)cc2)C(=O)N[C@@H](CC(C)C)C(=O)N[C@H](C(=O)NCC(N)=O)CSCC(=O)N[C@@H](Cc2cc(F)c(F)c(F)c2)C(=O)N(C)[C@@H](Cc2ccccc2)C(=O)N1C [Example 3218] ({CH2CO}-[Phe(3,4,5-F3)][NMeF][NMeNle][dP][Pip(4-aza)]V[NMeF]Y[dPip]WYLCG-NH2; thioether N-13)"
3,1 to 10 µM,CCCC[C@H]1C(=O)N[C@@H](CC(N)=O)C(=O)N2CCC[C@H]2C(=O)N[C@@H](CO)C(=O)N[C@@H](CCO)C(=O)N2C[C@H](O)C[C@H]2C(=O)N[C@@H](Cc2c[nH]c3ccccc23)C(=O)N[C@@H](CCO)C(=O)N[C@@H](Cc2c[nH]c3ccccc23)C(=O)N(C)[C@@H](C)C(=O)N(C)[C@@H](C)C(=O)N[C@@H](CCC(=O)O)C(=O)NC(C(=O)NCC(N)=O)CSCC(=O)N[C@@H](Cc2ccc(O)cc2)C(=O)N1C (stereo partly drawn) [Example 10218] ({CH2CO}-Y[NMeNle]NPS[hSer][Hyp]W[hSer]W[NMeA][NMeA]E[ξC]G-NH2; thioether N-14)
4,0.01 to 0.0999 µM,CCCC[C@H]1C(=O)N(C)[C@@H](CCCC)C(=O)N[C@@H](CC(C)C)C(=O)N[C@H](C(=O)NCC(N)=O)CSCC(=O)N[C@@H](Cc2ccc(OC)cc2)C(=O)N(C)[C@@H](C)C(=O)N[C@@H](CC(=O)O)C(=O)N2CCC[C@H]2C(=O)N[C@@H](Cc2cnc[nH]2)C(=O)N[C@@H](CCCCN)C(=O)N2C[C@H](O)C[C@@H]2C(=O)N[C@@H](Cc2c[nH]c3ccccc23)C(=O)N[C@@H](CCCCN)C(=O)N[C@@H](Cc2cn(CC(=O)O)c3ccccc23)C(=O)N1C [Example 7154] ({CH2CO}-Y(Me)[NMeA]DPHK[d(cisHyp)]WK[Trp(1-CH2COOH)][NMeNle][NMeNle]LCG-NH2; thioether N-14)

# Same assay, conditions: PD-L1-His 10 nM, PD-1-Ig 20 nM; read-out: HTRF Human PD-L1/PD-1 Binding Assay IC50
row,IC50,SMILES
1,0.18 µM,CCCC[C@H]1C(=O)N[C@@H](CO)C(=O)N[C@H](C(=O)NCC(N)=O)CSCC(=O)N[C@@H](Cc2ccc(O)cc2)C(=O)N(C)[C@@H](C)C(=O)N[C@@H](CC(N)=O)C(=O)N2CCC[C@H]2C(=O)N[C@@H](Cc2c[nH]cn2)C(=O)N[C@@H](CCC(N)=O)C(=O)N2C[C@H](O)C[C@H]2C(=O)N[C@@H](Cc2c[nH]c3ccccc23)C(=O)N[C@@H](CO)C(=O)N[C@@H](Cc2c[nH]c3ccccc23)C(=O)N(C)[C@@H](CCOC)C(=O)N1C [Example 10138] ({CH2CO}-Y[NMeA]NPHQ[Hyp]WSW[NMehSer](Me)[NMeNle]SCG-NH2; thioether N-14)
2,1 µM,CC(C)C[C@@H]1NC(=O)[C@H](Cc2c[nH]cn2)NC(=O)[C@@H]2CCCN2C(=O)[C@H](CC(N)=O)NC(=O)[C@H](C)N(C)C(=O)[C@H](Cc2ccc(O)cc2)NC(=O)CSC[C@@H](C(=O)NCC(N)=O)NC(=O)[C@H](C)NC(=O)[C@H](CC(=O)O)N(C)C(=O)[C@H](CCCCN)N(C)C(=O)[C@H](Cc2c[nH]c3ccccc23)NC(=O)[C@H](CO)NC(=O)[C@H](Cc2c[nH]c3ccccc23)NC(=O)[C@@H]2C[C@@H](O)CN2C1=O [Example 1534]

# — patent publication US10538555B2, “Macrocyclic inhibitors of the PD-1/PD-L1 and CD80(B7-1)/PD-L1 protein/protein interactions” (BRISTOL-MYERS SQUIBB COMPANY, priority 2014, dated 2020)
